{"source": "paper PMC11984586", "about": "“A novel spider toxin as a selective antagonist of the Kv1 subfamily of voltage-gated potassium channels through gating modulation” (The Journal of Biological Chemistry, 2025)", "type_in_all_cases": "cell-based", "key": {"[1]": {"biological_target": "T1, Kv1.1/1.3 S5-S6 chimeric channel (Homo sapiens, UniProt Q09470, A352P/E350D/E351D/E353T/H355G/S369T/Y379H)", "T1 construct": "expressed in transfected cells; host or cells: CHO-K1", "T1 sequence (Q09470 whole entry E350D/E351D/A352P/E353T/H355G/S369T/Y379H)": "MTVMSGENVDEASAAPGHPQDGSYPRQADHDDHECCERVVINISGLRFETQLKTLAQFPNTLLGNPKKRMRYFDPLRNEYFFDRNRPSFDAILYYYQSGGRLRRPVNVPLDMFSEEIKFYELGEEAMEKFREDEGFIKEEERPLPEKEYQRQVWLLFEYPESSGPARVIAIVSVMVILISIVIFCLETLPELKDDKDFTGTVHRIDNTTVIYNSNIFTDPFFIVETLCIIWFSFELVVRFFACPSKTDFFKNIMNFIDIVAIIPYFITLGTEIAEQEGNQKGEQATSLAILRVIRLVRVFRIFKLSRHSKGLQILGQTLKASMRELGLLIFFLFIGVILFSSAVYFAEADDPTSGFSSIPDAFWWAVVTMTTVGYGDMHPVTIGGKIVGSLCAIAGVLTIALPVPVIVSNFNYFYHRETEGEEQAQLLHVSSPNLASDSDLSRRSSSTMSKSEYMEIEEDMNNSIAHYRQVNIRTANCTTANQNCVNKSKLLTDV", "test": "Whole-cell patch clamp, chimeric channel", "details": "+30 mV, mean ± SD", "text": "(§1) To investigate the structural determinants underlying the differential regulatory effects of MrVIII on Kv1 channels, we employed a chimeric channel strategy. Using Kv1.3 as the template, the S1-S2, S3-S4, and S5-S6 transmembrane helices and their respective linkers from Kv1.1 were inserted to generate chimeras, generating the Kv1.3/1.1 S1-S2, Kv1.3/1.1 S3-S4, and Kv1.3/1.1 S5-S6 chimeric channels. […] These findings indicate that the S3-S4 is the key determinant for the differential inhibition of Kv1.1 and Kv1.3 by MrVIII. To further validate this conclusion, we constructed a reverse chimeric channel using Kv1.1 as the template, inserting the corresponding regions from Kv1.3 into Kv1.1. […] This finding more directly illustrates the exchange of the channel's voltage-dependence phenotype in toxin inhibition by swapping this S3-S4 between Kv1.1 and Kv1.3. […] In addition to confirming the differential role of S3-S4 between Kv1.1 and Kv1.3, we also substituted the S3-S4 of Kv1.4 and Kv1.7 into Kv1.3 to analyze MrVIII's inhibition profile. […] The IC50 for Kv1.3/1.7 S3-S4 could not be fitted, and inhi%(495 ms) was only 23.1 ± 10.0% (Fig. S2, E and F). […]\n(§2) CHO-K1 cells were selected for expressing Kv channels due to their lack of endogenous Kv channels, while HEK293 or ND7/23 cells were used for Nav and Cav channel expression. […] After 4 to 6 h transfection, cells were seeded onto poly-lysine–coated coverslips, and 24 to 36 h later, transfected cells were ready for patch-clamp analysis. […]\n(§3) For Kv current recordings, the bath solution contained (in mM) the following: 140 NaCl, 5 KCl, 1 MgCl2, 2 CaCl2, 10 glucose, and 10 Hepes (pH 7.3, adjusted with NaOH), and the pipette solution contained (in mM) the following: 140 KCl, 2.5 MgCl2, 11 EGTA, and 10 Hepes (pH 7.3, adjusted with KOH). […] Whole cell conductance (G) at each depolarizing voltage (V) was determined using the equation: G = I/(V−Vrev), where I is the current amplitude, and Vrev is the reversal potential. […]"}, "[2]": {"biological_target": "T2, Kv1.3/1.1 S5-S6 chimeric channel (Homo sapiens, UniProt P22001, D422E/D423E/G427H/H451Y/P424A/T425E/T441S)", "T2 construct": "expressed in transfected cells; host or cells: CHO-K1", "T2 sequence (P22001 whole entry D422E/D423E/P424A/T425E/G427H/T441S/H451Y)": "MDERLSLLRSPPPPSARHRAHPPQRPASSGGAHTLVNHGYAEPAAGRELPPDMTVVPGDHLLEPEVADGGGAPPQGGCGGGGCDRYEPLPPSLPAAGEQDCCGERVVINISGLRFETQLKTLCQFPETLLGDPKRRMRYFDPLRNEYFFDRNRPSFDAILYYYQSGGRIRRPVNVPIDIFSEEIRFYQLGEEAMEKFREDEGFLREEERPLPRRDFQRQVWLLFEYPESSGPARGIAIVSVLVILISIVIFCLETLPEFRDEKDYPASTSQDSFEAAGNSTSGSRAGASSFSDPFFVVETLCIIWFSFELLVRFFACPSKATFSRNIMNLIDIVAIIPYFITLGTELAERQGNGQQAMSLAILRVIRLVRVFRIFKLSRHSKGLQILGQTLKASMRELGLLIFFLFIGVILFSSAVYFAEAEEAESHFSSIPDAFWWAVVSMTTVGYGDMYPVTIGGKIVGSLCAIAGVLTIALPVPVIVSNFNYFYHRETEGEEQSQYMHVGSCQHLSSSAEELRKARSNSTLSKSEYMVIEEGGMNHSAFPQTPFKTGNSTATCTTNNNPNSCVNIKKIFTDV", "test": "Whole-cell patch clamp, chimeric channel", "details": "+30 mV, 500 ms, holding −80 mV, mean ± SD, n = 4-5, read-out: IC50, Kv1.3/1.1 S5-S6 current", "text": "as §1, §2, §3"}, "Cav1.3": {"test_system": "Cav1.3", "test": "Selectivity patch clamp, non-Kv1 channels", "details": "10 μM MrVIII; n = 3–5", "method": "(§4) CHO-K1 cells were selected for expressing Kv channels due to their lack of endogenous Kv channels, while HEK293 or ND7/23 cells were used for Nav and Cav channel expression. CHO-K1 cells were cultured in a Dulbecco's modified Eagle's medium/Ham's F-12 nutrient mixture (DMEM-F12) medium, and HEK293T and ND7/23 cells in DMEM medium, all supplemented with 10% fetal bovine serum and 1% penicillin-streptomycin (all from Gibco, Thermo Fisher Scientific, Inc) under standard conditions (37 °C, 5% CO2, and saturated humidity). These cell lines were purchased from Stem Cell Bank, Chinese Academy of Sciences. Channel plasmids were cotransfected with pEGFP-N1 (encoding GFP) into the respective cells using lipofectamine 2000, following the manufacturer's instructions (Invitrogen, Thermo Fisher Scientific, Inc.). Nav1.9-GFP plasmid was transfected into ND7/23 using the X-tremeGENE HP DNA Transfection Reagent (Roche). After 4 to 6 h transfection, cells were seeded onto poly-lysine–coated coverslips, and 24 to 36 h later, transfected cells were ready for patch-clamp analysis.\n(§5) Patch clamp experiments were conducted using an electrophysiology platform comprising a MultiClamp 700B amplifier and an Axon Digidata 1550 AD/DA convertor (Axon Instruments). Data acquisition was performed with pClamp 10.5 software (Axon Instruments). All experiments were performed at room temperature."}, "Cav2.2": {"test_system": "Cav2.2", "test": "Selectivity patch clamp, non-Kv1 channels", "details": "10 μM MrVIII; n = 3–5", "method": "as §4, §5"}, "Nav1.4-1.5": {"test_system": "Nav1.4-1.5", "test": "Selectivity patch clamp, non-Kv1 channels", "details": "10 μM MrVIII; n = 3–5", "method": "as §4, §5"}, "Nav1.7-1.9": {"test_system": "Nav1.7-1.9", "test": "Selectivity patch clamp, non-Kv1 channels", "details": "10 μM MrVIII; n = 3–5", "method": "as §4, §5"}}, "note": "Bridge positions count the residues as written; N and C are the ends. Peptide text beside a SMILES is read from it."}
{"smiles": "CC[C@H](C)[C@@H]1NC(=O)[C@H](Cc2ccc(O)cc2)NC(=O)[C@H](CCC(N)=O)NC(=O)[C@@H]2CCCN2C(=O)[C@@H]2CSSC[C@H](NC(=O)[C@H](C)NC(=O)[C@H](CO)NC(=O)[C@H](CCC(=O)O)NC(=O)[C@H](CCC(=O)O)NC(=O)[C@@H](N)[C@@H](C)O)C(=O)NCC(=O)NCC(=O)N[C@@H](Cc3ccccc3)C(=O)N[C@@H](CC(N)=O)C(=O)N[C@@H](C)C(=O)N[C@@H](CCCNC(=N)N)C(=O)N[C@H]3CSSC[C@H](NC1=O)C(=O)N[C@@H](CCCCN)C(=O)NCC(=O)N[C@@H](Cc1c[nH]c4ccccc14)C(=O)N[C@@H](CCCNC(=N)N)C(=O)N[C@@H]([C@@H](C)O)C(=O)N[C@@H](CCCCN)C(=O)N[C@@H](CCCNC(=N)N)C(=O)N[C@H](C(=O)N[C@@H](CC(C)C)C(=O)N[C@@H](CC(N)=O)C(=O)N1CCC[C@H]1C(=O)O)CSSC[C@H](NC(=O)[C@H](CCCCN)NC(=O)[C@H](Cc1c[nH]cn1)NC(=O)[C@H](CC(C)C)NC(=O)[C@@H]1CCCN1C3=O)C(=O)N2", "note": "[MrVIII] (H-TEESACGGFNARCPLHKCCPQYICKGWRTKRCLNP-OH; disulfide 6-19, 13-24, 18-32; N-terminus and C-terminus assumed)", "values": [{"measurement": "IC50", "setting": "[1]; current at 50 ms, n = 4-5", "result": "0.0489 ± 0.0266", "unit": "µM"}, {"measurement": "inhi%(495 ms), Kv1.1/1.3 S5-S6 current", "setting": "[1]; current at 495 ms", "result": "50.1 ± 19.9", "unit": "%"}, {"measurement": "IC50", "setting": "[2]", "result": "0.003 ± 0.0009", "unit": "µM"}, {"measurement": "inhibition of Cav1.3 current", "setting": "Cav1.3", "result": "did not remarkably inhibit"}, {"measurement": "inhibition of Cav2.2 current", "setting": "Cav2.2", "result": "did not remarkably inhibit"}, {"measurement": "inhibition of Nav1.4-1.5 currents", "setting": "Nav1.4-1.5", "result": "did not remarkably inhibit"}, {"measurement": "inhibition of Nav1.7-1.9 currents", "setting": "Nav1.7-1.9", "result": "did not remarkably inhibit"}]}
